These results are taken from article PMC4388716, “An Exploratory Study on ^99mTc-RGD-BBN Peptide Scintimammography in the Assessment of Breast Malignant Lesions Compared to ^99mTc-3P4-RGD2” (PLoS ONE, 2015).

For data set [1] the following is noted: cited from earlier work; for Effective radiation dose of conventional nuclear medical imaging agent examination: in vivo. From the text: The effective radiation dose to the body of ^99mTc-3P4-RGD2 and ^99mTc-RGD-BBN were 1.15 ± 0.13 mSv and 0.65 ± 0.07 mSv respectively ^9. According to the 2007 Recommendations of the International Commission on Radiological Protection (ICRP), radiation equivalent dose which occupational workers’ vital organs were exposed to should be less than 500mSv and radiosensitive organs should be less than 150mSv. In our study, the mean absorbed dose equivalent for the whole body was 2.02E-03 mSv / MBq in healthy males and 2.31E-03 mSv / MBq in healthy females. Compared with other clinical mar ...

For another data set, the system named is breast malignant lesions. As to the kind of experiment: SPECT/CT scintimammography of patients with breast malignant tumors. Details: key to Visual uptake grading: grade 1 = no abnormal increased uptake; grade 2 = mildly increased or heterogeneous uptake; grade 3 = definite focal increased uptake. To be noted: for Visual uptake grading: SPECT/CT 1 h p.i., 3 readers. The format is in vivo, human. From the text: All patients were sent to the ^99mTc-3P4-RGD2 and ^99mTc-RGD-BBN SMM on an individual basis. The time interval between two imaging procedures was 48–54 hr. Finally, ^99mTc-RGD-BBN and ^99mTc-3P4-RGD2 SMM results were compared with each other. To be included, a patient had to be without any other history of breast disease. Exclusion criteria included pregnancy, lactation and a body weight greater than 80 kg.
The 3P4-RGD2 and RGD-BBN were generously provided by the Medical Isotopes Research Center of Peking University in freeze-dried kits form. Na^99mTcO4 was obtained from a commercial ^99Mo/^99mTc generator (Beijing Atom High Tech Co., Ltd.). The kit for preparation of ^99mTc-3P4-RGD2 was formulated by containing, per millilitre, 20 μg of HYNIC-3P4-RGD2, 5 mg of TPPTS, 6.5 mg of tricine, 40 mg of mannitol, 38.5 mg of disodium succinate hexahydrate and 12.7 mg of succinic acid. Radiolabeling and quality control procedures for ^99mTc-3P4-RGD2 were performed as described previously ^4. The kit for preparation of ^99mTc-RGD-BBN was formulated by containing, per millilitre, 20 μg of HYNIC-RGD-BBN, 6 mg of TPPTS, 10 mg of tricine, 40 mg of mannitol, 38.5 mg of disodium succinate hexahydrate and 12.7 mg of succinic acid. Then 1 mL of Na^99mTcO4 solution in saline was added to each kit vial followed by 30 min incubation at 100°C. The quality control was conducted by radioactive thin layer chromatography (ITLC), counting the high labeling yield of about 95%. Both ^99mTc-3P4-RGD2 and ^99mTc-RGD-BBN with a mean radioactivity of 299 ± 30 MBq and 293 ± 32 MBq were administered via single intravenous bolus injection followed by a 10 mL saline flush. ^99mTc-3P4-RGD2 and ^99mTc-RGD-BBN was performed with SPECT/CT at 1 h after intravenous injection of radiotracers respectively on separate days.
SPECT: Emission images were acquired using a dual-head, large field-of-view scintillation camera (Precedence, Philips Healthcare), equipped with a low-energy, high-resolution and parallel-hole collimator. In all healthy volunteers, planar images in both anterior and posterior views were acquired at 10 min, 30 min, 1 h, 2 h, 4 h, 8 h and 24 h post-injection and were stored digitally, using ^99mTc with a 20% energy window centered on 140 keV and 128×128 matrix. The velocity of scanning was 15 cm/min. SPECT images in all the patients were acquired over 360° (180°per head) in supine position with raised arms during the imaging. Imaging with both radiotracers was performed using 6°angular steps in a 20 s time frame, with a 64×64 matrix size. Distance between the breast and detector was minimized. The position of the patient was recorded in detail and kept consistent to the greatest extent in the second SPECT scan to make sure that the two different SPECT images could be fused to the CT images.
CT images from neck to abdomen were acquired sequentially in a non-dedicated 3rd-generation scanner installed in the SPECT camera gantry, with a 10 mm slice thickness, a maximum current of 2.5 mA and a 140 kV potential. The patients just had one CT scan since ^99mTc-3P4-RGD2 and ^99mTc-RGD-BBN SPECT were undertaken on the same device.
All images were interpreted qualitatively by three experienced nuclear medicine radiologists who were unaware of the clinical history and other test results of all patients. Visual analysis was performed on a per-lesion basis and in a blinded fashion. A 3-point scale system was adopted to describe the uptake degree for breast lesions. […] Homogeneous uptake in both breasts was classified as grade 1. SMM was considered positive for malignancy if the visual score was ≥2. There was no disagreement between three radiologists in our study.

Consider `O.O.O=P([O-])([O-])CP(=O)([O-])[O-].[99Tc+4]` [99mTc—MDP], for which, in data set [1], the “Effective radiation dose of conventional nuclear medical imaging agent examination” value is 5.92 mSv.

`[99Tc].[C-]#[N+]CC(C)(C)OC.[C-]#[N+]CC(C)(C)OC.[C-]#[N+]CC(C)(C)OC.[C-]#[N+]CC(C)(C)OC.[C-]#[N+]CC(C)(C)OC.[C-]#[N+]CC(C)(C)OC` [99mTc—MIBI]: the “Effective radiation dose of conventional nuclear medical imaging agent examination” value in data set [1] is reported as 7.05 mSv.

As to “[^99mTc (HYNIC-3PRGD2) (tricine) (TPPTS)] [99mTc-3P4-RGD2]”, the Visual uptake grading came to 1 in the data set on breast malignant lesions (Patient 1: DCIS, R, 2.3 cm, αvβ3 -, GRPR +); 3 in the data set on breast malignant lesions (Patient 2: DCIS, L, 2.0 cm, αvβ3 +, GRPR +); 3 in the data set on breast malignant lesions (Patient 3: IDC, L, 5.1 cm, αvβ3 +, GRPR +); 3 in the data set with breast malignant lesions (Patient 4: IDC, R, 2.1 cm, αvβ3 +, GRPR -); 3 with breast malignant lesions (Patient 5: IDC, L, 5.8 cm, αvβ3 +, GRPR +); 3 in the data set with breast malignant lesions (Patient 6: IDC, L, 6.3 cm, αvβ3 +, GRPR +). Further, the “Malignant lesions detected by SPECT/CT (of 6 malignant lesions in 6 patients)” value in the data set on breast malignant lesions (SPECT/CT 1 h after i.v. injection, 4 IDC, 2 DCIS) is “five lesions with clear uptake and the other one with barely uptake”. Besides, in data set [1] (per examination (299 ± 30 MBq 99mTc-3P4-RGD2, 293 ± 32 MBq 99mTc-RGD-BBN i.v.)), the “Effective radiation dose to the body” value is 1.15 ± 0.13 mSv.
